The values that follow are results of earlier work, collected in US20070042999A1, “Phosphate derivatives of pharmaceutical products” (priority 2003, published 2007).

For data set [1] the following is noted: in vivo.
The conditions of data set [2]: administered orally.

For the compound `N[C@@H](Cc1cc(I)c(Oc2cc(I)c(O)c(I)c2)c(I)c1)C(=O)O` [Thyroxine, thyroxine], the bioavailability in data set [1] is listed as 50-80%.

Consider `C[C@]12CC[C@H]3[C@@H](CCC4=CC(=O)CC[C@@]43C)[C@@H]1CC[C@@H]2O` [testosterone], for which the “fraction of the administered dose available in the active form” value in data set [2] is on record as “less than one sixth”.
